Earlier results as cited in patent US20030004116A1, “Noni extract for prevention of disease” (priority 2001, published 2003).

Key:
K-ras-NRK cells = settings: reversible when compound withdrawn
[1] = test system: RSV-NRK cells expressing the src oncogene

COc1c(C=O)c(O)cc2c1C(=O)c1ccccc1C2=O [Damnacathal]
morphology and cytoskeletal structure (K-ras-NRK cells): induced normal morphology and cytoskeletal structure | effect on cells [1]: no effect
